From patent US20250122160A1, “PROTEIN TYROSINE PHOSPHATASE INHIBITORS AND METHODS OF USE THEREOF” (Calico Life Sciences LLC, priority 0001, published 2025) come the findings set out here.

Test [1] deals with T1, His tagged PTPN2 (TC45) protein (Homo sapiens, UniProt P17706).
T1 construct: made in house
T1 sequence (P17706 with tags, fused parts or gaps isoform P17706-2): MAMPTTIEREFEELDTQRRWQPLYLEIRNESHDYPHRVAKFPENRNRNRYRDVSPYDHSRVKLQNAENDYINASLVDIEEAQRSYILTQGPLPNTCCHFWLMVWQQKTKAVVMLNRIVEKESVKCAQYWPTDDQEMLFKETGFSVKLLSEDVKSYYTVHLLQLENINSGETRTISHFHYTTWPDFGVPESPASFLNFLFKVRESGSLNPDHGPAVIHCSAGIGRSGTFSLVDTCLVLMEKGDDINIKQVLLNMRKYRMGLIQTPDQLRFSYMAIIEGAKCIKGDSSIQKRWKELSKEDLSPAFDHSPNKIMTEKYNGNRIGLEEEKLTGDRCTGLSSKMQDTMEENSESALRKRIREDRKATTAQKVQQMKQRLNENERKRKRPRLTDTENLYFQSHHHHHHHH
Kind of test: Mobility shift assay (MSA) to determine potency of PTPN2 inhibitors. The following applies: 0.5 nM enzyme, 2 μM substrate. The format is biochemical. The procedure:
Compound activity was determined using in house His tagged PTPN2 (TC45) protein (SEQ ID NO: 1) in an in vitro enzymatic reaction. The enzymatic assay used to determine activity was a mobility shift assay using a LabChip EZ Reader by Caliper Life Sciences. The enzymatic reaction was carried out in assay buffer (50 mM HEPES pH 7.5, 1 mM EGTA, 10 mM EDTA, 0.01% Tween® 20, and 2 mM DTT). The compounds were dispensed on a white 384 well ProxiPlate™ (PerkinElmer Catalog #6008289) plate using the Labcyte Echo at varying concentrations (12 point, 1:3 dilution). The enzyme (at 0.5 nM) was incubated with compound for 10 minutes at room temperature. Then the substrate (phosphorylated insulin receptor probe sequence: ((OG488)-(NH—CH2—CH2—O—CH2—CH2—O—CH2—CO)-T-R-D-I-(PY)-E-T-D-Y—Y—R—K—K—NH2) (SEQ ID NO: 2) was added at 2 μM to the plates and incubated for another 10 minutes at room temperature. Finally, a quench solution (water and 4-bromo-3-(2-oxo-2-propoxyethoxy)-5-(3-{[1-(phenylmethanesulfonyl)piperidin-4-yl]amino}phenyl)thiophene-2-carboxylic acid) was added to the plates, which were then run on the EZ Reader (excitation 488 nm, emission 530 nm) to measure % conversion (the amount of phosphorylated substrate which was de-phosphorylated by PTPN2). […] The % inhibition was then used to calculate the IC50 values.

Test [2] deals with T2, His tagged full-length PTPN1 protein (Homo sapiens, UniProt P18031).
T2 construct: made in house
T2 sequence (P18031 with tags, fused parts or gaps): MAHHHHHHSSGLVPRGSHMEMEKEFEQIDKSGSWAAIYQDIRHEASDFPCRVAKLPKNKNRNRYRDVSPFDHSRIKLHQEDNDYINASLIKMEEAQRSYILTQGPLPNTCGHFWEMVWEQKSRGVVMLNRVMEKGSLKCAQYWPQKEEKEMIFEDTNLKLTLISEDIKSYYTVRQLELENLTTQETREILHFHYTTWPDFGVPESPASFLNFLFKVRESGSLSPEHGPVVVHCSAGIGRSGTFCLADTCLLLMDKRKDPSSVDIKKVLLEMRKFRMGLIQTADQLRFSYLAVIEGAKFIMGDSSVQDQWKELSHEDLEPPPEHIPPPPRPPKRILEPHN
Kind of test: Mobility shift assay (MSA) to determine potency of PTPN1 inhibitors. The class given is biochemical. The following applies: 0.5 nM enzyme, 2 μM substrate. How it is done:
Compound activity was determined using in house His tagged full-length PTPN1 protein (SEQ ID NO: 3) in an in vitro enzymatic reaction. The enzymatic assay used to determine activity is a mobility shift assay using a LabChip EZ Reader by Caliper Life Sciences. The enzymatic reaction was carried out in assay buffer (50 mM HEPES pH 7.5, 1 mM EGTA, 10 mM EDTA. 0.01% Tween® 20, and 2 mM DTT). The compounds were dispensed on a white 384 well ProxiPlate™ (PerkinElmer Cat #6008289) plate using a Labcyte Echo® liquid handler at varying concentrations (12 point, 1:3 dilution). The enzyme (at 0.5 nM) was incubated with compound for 10 minutes at room temperature. Then the substrate (phosphorylated insulin receptor probe sequence: ((OG488)-(NH—CH2—CH2—O—CH2—CH2—O—CH2—CO)-T-R-D-I-(PY)-E-T-D-Y—Y—R—K—K—NH2) (SEQ ID NO: 2) was added at 2 μM to the plates and incubated for another 10 minutes at room temperature. Finally, a quench solution (water and 4-bromo-3-(2-oxo-2-propoxyethoxy)-5-(3-{[1-(phenylmethanesulfonyl)piperidin-4-yl]amino}phenyl)thiophene-2-carboxylic acid) was added to the plates, which were then run on the EZ Reader (excitation 488 nm, emission 530 nm) to measure % conversion (the amount of phosphorylated substrate which was de-phosphorylated by PTPN1). […] The % inhibition was then used to calculate the IC50 values.

Take `CCCCNCC1CCc2cc(O)c(N3CC(=O)NS3(=O)=O)c(F)c2C1` (stereo not shown) [Compound 396, 5-{7-[(butylamino)methyl]-1-fluoro-3-hydroxy-5,6,7,8-tetrahydronaphthalen-2-yl}-1λ^6,2,5-thiadiazolidine-1,1,3-trione]: the IC50 in test [1] and in test [2] was 10 to 100 nM throughout.

Turning to `[2H]C1([2H])Cc2cc(O)c(N3CC(=O)NS3(=O)=O)c(F)c2C([2H])([2H])[C@@]1([2H])NCCC(C)C` (single isomer, unassigned) [Compound 370], the figures for the IC50 in test [1] and in test [2] were 10 to 100 nM and over 100 nM, respectively.

Take `O=C1CN(c2c(O)cc3c(c2F)C[C@H](NCC2CCCCO2)CC3)S(=O)(=O)N1` (stereo partly drawn) [Compound 350, 5-[(7R)-1-fluoro-3-hydroxy-7-{[(oxan-2-yl)methyl]amino}-5,6,7,8-tetrahydronaphthalen-2-yl]-1λ^6,2,5-thiadiazolidine-1,1,3-trione]: the IC50 (in general, the concentration needed to halve the response being measured) in test [1] lay within 1 to 10 nM; in test [2], 10 to 100 nM.

`N[C@@H]1CCc2cc(O)c(N3CC(=O)NS3(=O)=O)c(F)c2C1` [Compound 198]: the IC50 in test [1] was 10 to 100 nM; in test [2] it was over 100 nM.

As to `O=C1CN(c2c(O)cc3c(c2F)C[C@H](NCC2COC2)CC3)S(=O)(=O)N1` [Compound 366, 5-[(7R)-1-fluoro-3-hydroxy-7-{[(oxetan-3-yl)methyl]amino}-5,6,7,8-tetrahydronaphthalen-2-yl]-1λ^6,2,5-thiadiazolidine-1,1,3-trione], the IC50 in test [1] and in test [2] was 10 to 100 nM in each case.

`COCCCNC(=O)N1CCc2cc(O)c(N3CC(=O)NS3(=O)=O)c(F)c2C1` [Compound 278]: the concentration for half-maximal inhibition (IC50) in test [1] and in test [2] was 10 to 100 nM each time.

Consider `C[C@H](N)CN1CCc2cc(O)c(N3CC(=O)NS3(=O)=O)c(F)c2C1` [Compound 245], for which the IC50 in test [1] and in test [2] was 10 to 100 nM each time.

For `NC[C@H]1Cc2cc(O)c(N3CC(=O)NS3(=O)=O)c(F)c2C1` (single isomer, unassigned) [Compound 407], the IC50 in test [1] and in test [2] was 10 to 100 nM in each case.

In the case of `CC1(CN[C@@H]2CCc3cc(O)c(N4CC(=O)NS4(=O)=O)c(F)c3C2)COC1` [Compound 344, 5-[(7R)-1-fluoro-3-hydroxy-7-{[(3-methyloxetan-3-yl)methyl]amino}-5,6,7,8-tetrahydronaphthalen-2-yl]-1λ^6,2,5-thiadiazolidine-1,1,3-trione], the IC50 in test [1] lay within 1 to 10 nM; in test [2], 10 to 100 nM.

Take `CC(C)OCCN1CCc2cc(O)c(N3CC(=O)NS3(=O)=O)c(F)c2C1` [Compound 233]: the IC50 is over 100 nM in test [1] and 10 to 100 nM in test [2].

As for `O=C1CN(c2c(O)cc3c(c2F)CN(CCCC2CCOCC2)CC3)S(=O)(=O)N1` [Compound 196], the IC50 in test [1] and in test [2] was 10 to 100 nM in each case.

Turning to `COCCN1CCc2cc(O)c(N3CC(=O)NS3(=O)=O)c(F)c2C1` [Compound 216], the IC50 in test [1] and in test [2] was over 100 nM each time.

For `C[C@@H]1C[C@@H](NC(=O)OC(C)(C)C)Cc2c1cc(O)c(N1CC(=O)NS1(=O)=O)c2F` [Compound 395, tert-butyl [(2R,4R)-8-fluoro-6-hydroxy-4-methyl-7-(1,1,4-trioxo-1λ^6,2,5-thiadiazolidin-2-yl)-1,2,3,4-tetrahydronaphthalen-2-yl]carbamate], the IC50 in test [1] and in test [2] was over 100 nM throughout.

With `Cc1nn(C(F)F)c(C)c1CCN1CCc2cc(O)c(N3CC(=O)NS3(=O)=O)c(F)c2C1` [Compound 238], the IC50 in test [1] and in test [2] was 1 to 10 nM in each case.

Consider `COCCCN[C@@H]1CCc2cc(O)c(N3CC(=O)NS3(=O)=O)c(F)c2C1` [Compound 363, 5-{(7R)-1-fluoro-3-hydroxy-7-[(3-methoxypropyl)amino]-5,6,7,8-tetrahydronaphthalen-2-yl}-1λ^6,2,5-thiadiazolidine-1,1,3-trione], for which the IC50 is 1 to 10 nM in test [1] and 10 to 100 nM in test [2].

As for `Cc1nn(C(C)(C)C)c(C)c1CCN1CCc2cc(O)c(N3CC(=O)NS3(=O)=O)c(F)c2C1` [Compound 266], the IC50 in test [1] and in test [2] was 1 to 10 nM each time.

Consider `O=C1CN(c2c(O)cc3c(c2F)CC(CNCCO)CC3)S(=O)(=O)N1` (stereo not shown) [Compound 403, 5-(1-fluoro-3-hydroxy-7-{[(2-hydroxyethyl)amino]methyl}-5,6,7,8-tetrahydronaphthalen-2-yl)-1λ^6,2,5-thiadiazolidine-1,1,3-trione], for which the IC50 in test [1] and in test [2] was 10 to 100 nM each time.

`CC(C)(CCN)CCN[C@@H]1CCc2cc(O)c(N3CC(=O)NS3(=O)=O)c(F)c2C1` [Compound 374, 5-{(7R)-7-[(5-amino-3,3-dimethylpentyl)amino]-1-fluoro-3-hydroxy-5,6,7,8-tetrahydronaphthalen-2-yl}-1λ^6,2,5-thiadiazolidine-1,1,3-trione]: the IC50 in test [1] lay in the range of 1 to 10 nM; in test [2], 10 to 100 nM.

As for `Cc1nn(C)c(C)c1CN1CCC(N2CCc3cc(O)c(N4CC(=O)NS4(=O)=O)c(F)c3C2)CC1` [Compound 236], the IC50 in test [1] was over 100 nM; in test [2], 10 to 100 nM.

In the case of `COC(CN1CCc2cc(O)c(N3CC(=O)NS3(=O)=O)c(F)c2C1)C1CCCC1` (stereo not shown) [Compound 249], the IC50 in test [1] and in test [2] was 10 to 100 nM each time.

As to `O=C1CN(c2c(O)cc3c(c2F)CN(C(=O)NCC2COC2)CC3)S(=O)(=O)N1` [Compound 283], the half-maximal inhibitory concentration (IC50) is 10 to 100 nM in test [1] and over 100 nM in test [2].

Take `Cc1nn(C(C)C)c(C)c1CCN1CCc2cc(O)c(N3CC(=O)NS3(=O)=O)c(F)c2C1` [Compound 273]: the IC50 in test [1] and in test [2] was 1 to 10 nM each time.

As for `O=C1CN(c2c(O)cc3c(c2F)C[C@H](NCc2cnco2)CC3)S(=O)(=O)N1` [Compound 364, 5-[(7R)-1-fluoro-3-hydroxy-7-{[(1,3-oxazol-5-yl)methyl]amino}-5,6,7,8-tetrahydronaphthalen-2-yl]-1λ^6,2,5-thiadiazolidine-1,1,3-trione], the IC50 in test [1] and in test [2] was 10 to 100 nM throughout.

On to `O=C1CN(c2c(O)cc3c(c2F)C[C@H](NCC2(C(F)F)CC2)CC3)S(=O)(=O)N1` [Compound 355, 5-[(7R)-7-({[1-(difluoromethyl)cyclopropyl]methyl}amino)-1-fluoro-3-hydroxy-5,6,7,8-tetrahydronaphthalen-2-yl]-1λ^6,2,5-thiadiazolidine-1,1,3-trione], for which the IC50 in test [1] lay within 1 to 10 nM; in test [2], 10 to 100 nM.

Turning to `O=C1CN(c2c(O)cc3c(c2F)CN(CC2CCNCC2)CC3)S(=O)(=O)N1` [Compound 228], the IC50 is over 100 nM in test [1] and 10 to 100 nM in test [2].

Consider `O=C1CN(c2c(O)cc3c(c2F)C[C@H](NCCC2CCOCC2)CC3)S(=O)(=O)N1` [Compound 365, 5-[(7R)-1-fluoro-3-hydroxy-7-{[2-(oxan-4-yl)ethyl]amino}-5,6,7,8-tetrahydronaphthalen-2-yl]-1λ^6,2,5-thiadiazolidine-1,1,3-trione], for which the IC50 in test [1] was 1 to 10 nM; in test [2], 10 to 100 nM.
